What was measured:
KDR [1] = target: T1, KDR (Homo sapiens, UniProt P35968); assay: KDR HTRF in vitro kinase assay; type: biochemical; parameters: purified enzyme (His6-KDR 789-1354, MW 63 kD); His6 (N); details: 1 mM ATP; read-out: KDR enzyme inhibition data (Ki)
Outline: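 His6-KDR 789-1354 (7 ng/well) with 0.5 μM biotinylated peptide substrate and 1 mM ATP in HEPES pH 7.1, MgCl2/MnCl2, 60 min at room temperature. EDTA-quenched, detected by streptavidin-XL-665 plus Eu-kryptate anti-phosphotyrosine HTRF after 3 h; IC50 from 620/665 nm ratio.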
Target sequence in this assay (P35968 789-1354): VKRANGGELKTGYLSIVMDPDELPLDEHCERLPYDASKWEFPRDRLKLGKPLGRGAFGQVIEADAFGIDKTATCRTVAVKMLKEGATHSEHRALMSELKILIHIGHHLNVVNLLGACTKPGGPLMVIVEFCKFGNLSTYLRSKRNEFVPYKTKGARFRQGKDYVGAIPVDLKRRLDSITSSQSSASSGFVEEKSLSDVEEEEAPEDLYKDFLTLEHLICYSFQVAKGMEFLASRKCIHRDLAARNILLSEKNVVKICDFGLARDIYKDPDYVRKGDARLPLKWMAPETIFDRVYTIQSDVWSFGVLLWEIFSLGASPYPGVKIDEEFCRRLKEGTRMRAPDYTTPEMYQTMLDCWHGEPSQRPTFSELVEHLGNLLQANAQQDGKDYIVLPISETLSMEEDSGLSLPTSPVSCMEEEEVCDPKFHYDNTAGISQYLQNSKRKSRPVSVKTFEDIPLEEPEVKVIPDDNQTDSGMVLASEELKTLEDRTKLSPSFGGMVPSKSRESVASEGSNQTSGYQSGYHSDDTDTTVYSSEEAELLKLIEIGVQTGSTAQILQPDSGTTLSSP

Aurora A = target: T2, Aurora A (Homo sapiens, UniProt O14965); assay: Aurora A enzyme inhibition (time-resolved fluorescence, STK substrate-2); type: biochemical; details: 1 mM ATP
T2 sequence (O14965 1-403): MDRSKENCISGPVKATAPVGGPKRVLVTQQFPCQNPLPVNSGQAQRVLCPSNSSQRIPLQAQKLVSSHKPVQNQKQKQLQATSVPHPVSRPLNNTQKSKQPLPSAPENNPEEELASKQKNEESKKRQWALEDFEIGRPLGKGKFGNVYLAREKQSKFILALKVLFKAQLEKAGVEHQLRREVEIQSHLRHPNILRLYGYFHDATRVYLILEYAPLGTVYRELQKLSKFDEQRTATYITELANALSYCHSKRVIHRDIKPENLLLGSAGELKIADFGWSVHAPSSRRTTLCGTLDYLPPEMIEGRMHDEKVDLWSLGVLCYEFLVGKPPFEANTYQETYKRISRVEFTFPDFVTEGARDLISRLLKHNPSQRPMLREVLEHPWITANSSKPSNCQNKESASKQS
Outline: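 Phosphorylation of biotinylated STK substrate-2 at 1 mM ATP, 1 h, Hepes buffer pH 7.4 (MgCl2, sodium orthovanadate, Triton X-100). After EDTA quench, 665/615 nm time-resolved fluorescence ratio read via europium anti-phospho antibody and SA-XL665; IC50 from exponential fit versus inhibitor concentration.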

KDR [2] = target: T1, KDR; assay: KDR cellular assay (KDR receptor phosphorylation ELISA); type: cell-based; parameters: expressed in transfected cells; host or cells: 3T3 (embryonic mouse) cells; details: KDR transfected 3T3 (embryonic mouse) cells, VEGF stimulated; read-out: IC50 inhibition of KDR phosphorylation
Experimental: The ability of compounds to inhibit KDR receptor phosphorylation in cells was measured by ELISA following the protocol outlined below.
KDR transfected 3T3 (embryonic mouse) cells added to 96-well tissue culture plates at 20,000 cells/well.
Plates were covered and placed in a 37° C. humidified incubator with 5% CO2 overnight, to allow cells to adhere.
Coating solution was prepared: 500 l/vial PBS was added to 2 vials of anti-KDR antibody, then 1 ml solubilized anti-KDR antibody into 29.0 ml bicarbonate buffer. Coating solution was added to all wells at 150 µl/well (final amount anti-KDR=1 µg/well) and placed at 4° C. overnight.
Blocking solution (2.1 g dry milk+42 ml PBS=5% milk in PBS) was placed on a stir plate for 30 min.
Assay plates were washed twice with PBST, and 200 µl/well blocking solution was added to all wells. Assay plates were covered with plate sealers and placed in a 37° C. microplate chamber until just before cell lysate transfer.
Compound stocks were thawed or prepared in DMSO as 5 mM stocks.
Dilution medium (DM, 1% DMSO in DMEM) and compounds were diluted by half-log increments for concentration response analysis.
Conditioned media was dumped from the tissue culture plates, and plates were blotted dry.
Standard solution in DM, compound dilutions in DM, or DM (for high control, negative control, and reference wells) were added to the tissue culture plates, 25 µl/well. Each pair of tissue culture plates was prepared with the same compounds, solutions, and layout; and will be combined later; Tissue culture plates were covered and placed in the 37° C. microplate chamber for 20 min.
VEGF solution was prepared: 110 l VEGF stock+10.89 ml DM=100 ng/ml VEGF
VEGF solution or DM (for reference wells) was added to the tissue culture plates, 25 μl/well.
Tissue culture plates were covered and placed in the 37° C. microplate chamber for 10 min.
RIPA buffer was prepared (240 l NaVO3 stock+240 l PIC stock+24 l NaF stock+23.496 ml RIPA base) and added to the tissue culture plates, 50 µl/well.
Tissue culture plates were covered and placed on a Labline plate shaker for 10 min (speed about 5).
Assay plates were washed twice with PBST.
Cell lysates from matching wells of each pair of tissue culture plates were combined to =200 µl/well, and were pipetted up and down to mix. Cell lysates were transferred to the assay plates using the same layouts, 170 µl/well.
Assay plates were covered with plate sealers and placed on a Labline plate shaker for 2 hr (speed about 5).
Assay plates were washed 5 times with PBST.
Biotin antibody solution was prepared (16 l biotin antibody stock+32 ml PBST=2000× dilution) and added to the assay plates, 150 µl/well.
Assay plates were covered with plate sealers and placed on a Labline plate shaker for 90 min
Streptavidin-HRP solution was prepared (16 l streptavidin-HRP stock+32 ml PBST=2000× dilution) and added to the assay plates, 150 µl/well.
Assay plates were covered with plate sealers and placed on a Labline plate shaker for 60 min
Substrate was added to the assay plates, 100 µl/well.
As assay plates developed, the plates were each monitored on a Molecular Devices Spectramax set to 650 nm, until the signal in the high control wells was around 0.6 OD and the signal in the negative control wells was around 0.1-0.15 OD.
Stop solution was added to the assay plates, 100 µl/well.
The plates were read on a Molecular Devices Spectramax set to 450 nm.
Data was calculated by Assay Explorer, using same-plate high control wells as 0% and reference standard wells as 100% inhibition of KDR phosphorylation. IC50 values were calculated by non-linear regression analysis of the concentration response data.
Target sequence in this assay (P35968 20-1356): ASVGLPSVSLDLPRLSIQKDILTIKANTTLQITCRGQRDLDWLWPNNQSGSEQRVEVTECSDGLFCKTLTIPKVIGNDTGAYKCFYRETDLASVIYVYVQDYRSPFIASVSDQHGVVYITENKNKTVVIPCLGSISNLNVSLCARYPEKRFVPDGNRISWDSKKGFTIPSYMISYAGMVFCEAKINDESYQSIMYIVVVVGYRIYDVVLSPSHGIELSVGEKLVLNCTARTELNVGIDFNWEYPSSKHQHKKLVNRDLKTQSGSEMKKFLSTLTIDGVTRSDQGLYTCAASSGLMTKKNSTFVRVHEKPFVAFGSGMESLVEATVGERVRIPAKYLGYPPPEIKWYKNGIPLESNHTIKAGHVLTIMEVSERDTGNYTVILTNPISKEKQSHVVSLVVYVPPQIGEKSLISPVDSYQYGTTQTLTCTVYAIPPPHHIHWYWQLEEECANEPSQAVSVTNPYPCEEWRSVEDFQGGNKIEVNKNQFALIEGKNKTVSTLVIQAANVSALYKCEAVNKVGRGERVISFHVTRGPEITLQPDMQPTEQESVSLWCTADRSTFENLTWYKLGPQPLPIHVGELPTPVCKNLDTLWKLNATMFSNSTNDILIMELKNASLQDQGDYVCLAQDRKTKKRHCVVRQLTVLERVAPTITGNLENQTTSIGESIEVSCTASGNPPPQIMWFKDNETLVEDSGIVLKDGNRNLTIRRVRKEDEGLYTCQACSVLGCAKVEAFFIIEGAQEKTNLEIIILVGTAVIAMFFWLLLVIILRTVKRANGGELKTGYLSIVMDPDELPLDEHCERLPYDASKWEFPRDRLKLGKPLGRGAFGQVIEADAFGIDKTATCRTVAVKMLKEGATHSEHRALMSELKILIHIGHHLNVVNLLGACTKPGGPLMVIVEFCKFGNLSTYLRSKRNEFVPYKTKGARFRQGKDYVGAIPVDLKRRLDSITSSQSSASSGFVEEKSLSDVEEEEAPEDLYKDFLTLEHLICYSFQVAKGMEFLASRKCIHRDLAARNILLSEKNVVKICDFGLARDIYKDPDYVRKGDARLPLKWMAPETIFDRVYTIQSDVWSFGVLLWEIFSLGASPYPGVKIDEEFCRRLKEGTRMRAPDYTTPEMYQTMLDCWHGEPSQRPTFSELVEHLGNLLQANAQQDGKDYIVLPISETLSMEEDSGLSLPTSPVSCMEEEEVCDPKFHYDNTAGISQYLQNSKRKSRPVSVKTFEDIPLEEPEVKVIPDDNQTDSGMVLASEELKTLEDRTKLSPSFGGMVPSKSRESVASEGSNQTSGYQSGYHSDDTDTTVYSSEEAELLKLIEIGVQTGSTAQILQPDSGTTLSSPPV

Aurora B = target: T3, Aurora B (Homo sapiens, UniProt Q96GD4); assay: Aurora B enzyme inhibition (time-resolved fluorescence, histone H3 peptide); type: biochemical; details: 1 mM ATP
T3 construct: Active Aurora B enzyme (recombinant residues 1-344)
Outline: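 IC50s came from an exponential fit of inhibition against inhibitor concentration, with phosphorylation read as the 665/615 nm time-resolved fluorescence ratio after EDTA stop using Eu-anti-phospho-H3 and SA-APC. The 1 h reaction used Aurora B 1-344 plus GST-INCENP, biotin-histone H3 1-21 peptide and 1 mM ATP in pH 7.4 HEPES buffer.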

T3 sequence (Q96GD4 whole entry, the tested form may be a part): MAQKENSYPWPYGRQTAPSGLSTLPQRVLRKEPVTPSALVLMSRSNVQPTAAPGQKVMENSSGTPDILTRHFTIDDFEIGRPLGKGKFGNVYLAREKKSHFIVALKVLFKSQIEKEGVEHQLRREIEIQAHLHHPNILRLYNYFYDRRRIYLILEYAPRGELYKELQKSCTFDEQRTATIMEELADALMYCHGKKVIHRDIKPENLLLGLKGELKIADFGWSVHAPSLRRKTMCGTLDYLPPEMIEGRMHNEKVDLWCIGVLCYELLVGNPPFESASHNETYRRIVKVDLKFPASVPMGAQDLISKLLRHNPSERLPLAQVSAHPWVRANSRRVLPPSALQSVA
T3 sequence (Q9NQS7 826-918 partner limits assumed): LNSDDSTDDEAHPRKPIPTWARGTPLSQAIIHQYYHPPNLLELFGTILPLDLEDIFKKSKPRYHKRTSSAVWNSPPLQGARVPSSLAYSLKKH

Ki (KDR [1]) [nM]	Ki (Aurora A) [nM]	IC50 (KDR [2]) [nM]	Ki (Aurora B) [nM]	Compound
< 100	< 100	100 to 1000	< 100	CC1(C)[C@H]2C[C@H](C(N)=O)[C@H](Nc3nc(Nc4cnn(CCc5ccccc5)c4)ncc3Cl)[C@@H]1C2 [Example 188, (1R,2R,3S,5R)-2-[(5-chloro-2-{[1-(2-phenylethyl)-1H-pyrazol-4-yl]amino}pyrimidin-4-yl)amino]-6,6-dimethylbicyclo[3.1.1]heptane-3-carboxamide]
< 100	< 100	100 to 1000	< 100	CCn1cc(Nc2ncc(Cl)c(N[C@H]3[C@@H](C(N)=O)C[C@H]4C[C@@H]3C4(C)C)n2)cn1 [Example 166, (1R,2R,3S,5R)-2-({5-chloro-2-[(1-ethyl-1H-pyrazol-4-yl)amino]pyrimidin-4-yl}amino)-6,6-dimethylbicyclo[3.1.1]heptane-3-carboxamide]
100 to 1000	100 to 1000	100 to 1000	< 100	CN1CCN(CCn2cc(Nc3ncc(Cl)c(N[C@H]4[C@@H](C(N)=O)C[C@H]5C[C@@H]4C5(C)C)n3)cn2)CC1 [Example 190, (1R,2R,3S,5R)-2-{[5-chloro-2-({1-[2-(4-methylpiperazin-1-yl)ethyl]-1H-pyrazol-4-yl}amino)pyrimidin-4-yl]amino}-6,6-dimethylbicyclo[3.1.1]heptane-3-carboxamide]
< 100	< 100	100 to 1000	< 100	Cn1cc(Nc2ncc(Br)c(N[C@H]3[C@@H](C(N)=O)C[C@H]4C[C@@H]3C4(C)C)n2)cn1 [Example 182, (1R,2R,3S,5R)-2-({5-bromo-2-[(1-methyl-1H-pyrazol-4-yl)amino]pyrimidin-4-yl}amino)-6,6-dimethylbicyclo[3.1.1]heptane-3-carboxamide]
< 100	< 100	100 to 1000	< 100	CC1(C)[C@H]2C[C@H](C(N)=O)[C@H](Nc3nc(Nc4cnn(-c5ccccc5)c4)ncc3Cl)[C@@H]1C2 [Example 189, (1R,2R,3S,5R)-2-({5-chloro-2-[(1-phenyl-1H-pyrazol-4-yl)amino]pyrimidin-4-yl}amino)-6,6-dimethylbicyclo[3.1.1]heptane-3-carboxamide]

The next lines start with the compound.

Compound	Ki (KDR [1]) [nM]	Ki (Aurora A) [nM]	IC50 (KDR [2]) [nM]	Ki (Aurora B) [nM]
Cn1cc(Nc2ncc(Br)c(N[C@@H]3[C@H](C(N)=O)[C@H]4C=C[C@@H]3C4)n2)cn1.Cn1cc(Nc2ncc(Br)c(N[C@H]3[C@@H](C(N)=O)[C@@H]4C=C[C@H]3C4)n2)cn1 (mixture of isomers) [Example 28, (1S,2S,3R,4R)-3-({5-bromo-2-[(1-methyl-1H-pyrazol-4-yl)amino]pyrimidin-4-yl}amino)bicyclo[2.2.1]hept-5-ene-2-carboxamide and (1R,2R,3S,4S)-3-({5-bromo-2-[(1-methyl-1H-pyrazol-4-yl)amino]pyrimidin-4-yl}amino)bicyclo[2.2.1]hept-5-ene-2-carboxamide]	< 100	< 100	< 100	< 100
CC(C)NC(=O)[C@@H]1CCC[C@@H]1Nc1nc(Nc2cnn(C)c2)ncc1Cl.CC(C)NC(=O)[C@H]1CCC[C@H]1Nc1nc(Nc2cnn(C)c2)ncc1Cl (mixture of isomers) [Example 156, (1S,2R)-2-({5-chloro-2-[(1-methyl-1H-pyrazol-4-yl)amino]pyrimidin-4-yl}amino)-N-isopropylcyclopentanecarboxamide and (1R,2S)-2-({5-chloro-2-[(1-methyl-1H-pyrazol-4-yl)amino]pyrimidin-4-yl}amino)-N-isopropylcyclopentanecarboxamide]	100 to 1000	< 100	100 to 1000	< 100
Cc1nn(C)c(C)c1Nc1ncc(Cl)c(N[C@H]2[C@@H](C(N)=O)[C@@H]3C=C[C@H]2C3)n1 [Example 127, (1S,2S,3R,4R)-3-({5-chloro-2-[(1,3,5-trimethyl-1H-pyrazol-4-yl)amino]pyrimidin-4-yl}amino)bicyclo[2.2.1]hept-5-ene-2-carboxamide]	100 to 1000	100 to 1000	100 to 1000	100 to 1000
Cn1cc(Nc2ncc(C(F)(F)F)c(Nc3sccc3C(N)=O)n2)cn1 [Example 152, 2-({2-[(1-methyl-1H-pyrazol-4-yl)amino]-5-(trifluoromethyl)pyrimidin-4-yl}amino)thiophene-3-carboxamide]	100 to 1000	< 100	100 to 1000	< 100
NC(=O)[C@@H]1[C@H](Nc2nc(Nc3cnn(CCO)c3)ncc2C(F)(F)F)[C@H]2C=C[C@@H]1C2.NC(=O)[C@H]1[C@@H](Nc2nc(Nc3cnn(CCO)c3)ncc2C(F)(F)F)[C@@H]2C=C[C@H]1C2 (mixture of isomers) [Example 29, (1S,2S,3R,4R)-3-{[2-{[1-(2-hydroxyethyl)-1H-pyrazol-4-yl]amino}-5-(trifluoromethyl)pyrimidin-4-yl]amino}bicyclo[2.2.1]hept-5-ene-2-carboxamide and (1R,2R,3S,4S)-3-{[2-{[1-(2-hydroxyethyl)-1H-pyrazol-4-yl]amino}-5-(trifluoromethyl)pyrimidin-4-yl]amino}bicyclo[2.2.1]hept-5-ene-2-carboxamide]	< 100	< 100	100 to 1000	100 to 1000
CC1(C)[C@H]2C[C@H](C(N)=O)[C@H](Nc3nc(Nc4cnn(C5CCNCC5)c4)ncc3Cl)[C@@H]1C2 [Example 191, (1R,2R,3S,5R)-2-[(5-chloro-2-{[1-(piperidin-4-yl)-1H-pyrazol-4-yl]amino}pyrimidin-4-yl)amino]-6,6-dimethylbicyclo[3.1.1]heptane-3-carboxamide]	< 100	< 100	100 to 1000	< 100
CCn1cc(Nc2ncc(Cl)c(Nc3ccc4[nH]ncc4c3)n2)cn1 [Example 176, 5-chloro-N^2-(1-ethyl-1H-pyrazol-4-yl)-N^4-(1H-indazol-5-yl)pyrimidine-2,4-diamine]			100 to 1000	
